Measured values taken from paper PMC9508239 (Nature Communications, 2022).

Assays:
[1] = test system: IR E697A; assay: Auto-phosphorylation of IR in 293FT cells expressing IR E697A; type: cell-based, human
Procedure: (§1) For the activation assay, the short isoform of human IR in pCS2-MYC was used as described previously[20],[49]. Plasmid transfections into 293FT cells were performed with Lipofectamin^TM 2000 (Invitrogen).
(§2) The cells were incubated with the lysis buffer B [50 mM Hepes pH 7.4, 150 mM NaCl, 10% Glycerol, 1% Triton X-100, 1 mM EDTA, 100 mM sodium fluoride, 2 mM sodium orthovanadate, 20 mM sodium pyrophosphate, 0.5 mM dithiothreitol (DTT), 2 mM phenylmethylsulfonyl fluoride (PMSF)] supplemented with cOmplete Protease Inhibitor Cocktail (Roche), PhosSTOP (Sigma), and 25 U/ml turbo nuclease (Accelagen) on ice for 1 h. After centrifuging at 20,817×g at 4 °C for 10 min, the concentrations of cell lysate were measured using Micro BCA Protein Assay Kit (Thermo Scientific). About 50–60 μg total proteins were analyzed by SDS-PAGE and quantitative Western blotting. […] For quantitative western blots, anti-rabbit immunoglobulin G (IgG) (H + L) (WB, 1:5000; Dylight 800 conjugates, Cat. #5151) and anti-mouse IgG (H + L) (WB, 1:5000; Dylight 680 conjugates, Cat. #5470) (Cell Signaling) were used as secondary antibodies. […]

[2] = test system: IR D496K; assay: Auto-phosphorylation of IR in 293FT cells expressing IR D496K; type: cell-based, human
Procedure: as §1, §2

[3] = test system: endogenous murine IR; assay: IR signaling (pY IR, pAKT, pERK) in GFP MEFs, tamoxifen-inducible IR knockout (Fig. S8); type: cell-based, mouse; details: tamoxifen treatment, high concentration of insulin
Procedure: IR^F/F mice (Jackson #006955[71]) were crossed with CAG-CRE/ERT mice (Jackson #004682) to generate IR^F/F; CRE-ERT mice. The IR^F/F; CRE-ERT mice were backcrossed nine generations to C57BL/6 (Jackson #000664). The MEFs from IR^F/F; CRE-ERT mice were isolated as described earlier with some modifications. E14.5 embryos were minced with sterile scalpels and incubated with 0.25% trypsin-EDTA for 10 min at 37 °C and a 5% CO2 incubator. Fresh 0.25% trypsin-EDTA was added. After 10 min incubation, cells were put into fresh DMEM containing supplemented 10% (v/v) FBS, 2 mM L-glutamine, 55 μM β-mercaptoethanol, and 1% penicillin/streptomycin, and then centrifuged at 290×g for 5 min. […]
The cells were incubated with the lysis buffer B [50 mM Hepes pH 7.4, 150 mM NaCl, 10% Glycerol, 1% Triton X-100, 1 mM EDTA, 100 mM sodium fluoride, 2 mM sodium orthovanadate, 20 mM sodium pyrophosphate, 0.5 mM dithiothreitol (DTT), 2 mM phenylmethylsulfonyl fluoride (PMSF)] supplemented with cOmplete Protease Inhibitor Cocktail (Roche), PhosSTOP (Sigma), and 25 U/ml turbo nuclease (Accelagen) on ice for 1 h. After centrifuging at 20,817×g at 4 °C for 10 min, the concentrations of cell lysate were measured using Micro BCA Protein Assay Kit (Thermo Scientific). About 50–60 μg total proteins were analyzed by SDS-PAGE and quantitative Western blotting. […]

[4] = test system: IR F64A; assay: Auto-phosphorylation of IR in 293FT cells expressing IR F64A; type: cell-based, human; details: 10 nM, 10 min
Procedure: as §1, §2

[5] = test system: IR; assay: Insulin signaling in vivo, white adipose tissue (WAT); details: mouse epididymal WAT, vs vehicle
Procedure: as §2
Two to three months old male mice were fasted overnight. […] After centrifuging at 20,817×g at 4 °C for 30 min, the concentrations of cell lysate were measured using Micro BCA Protein Assay Kit (Thermo Scientific). The lysates were then analyzed by quantitative western blotting.

For “insulin: native IR ligand used as comparator; Humulin in the in vivo tests”, the IR activation [1] was “largely diminished IR activation by insulin”, the IR activation [2] was “reduced insulin-dependent IR activation” and the “downstream signaling through residual IR” value [3] was “could activate downstream signaling”. For the same substance, the IR activation [4] was “defective insulin-dependent activation”, the “pAKT, WAT” value [5] was “significantly increased pAKT levels” and the “pERK, WAT” value [5] was “neither insulin nor S597 had a statistically significant effect on pERK levels”.
